Reference: ChEMBL document CHEMBL4507263, “Data for DCP probe BAY-474” (2021)

What was measured:
[1] = GPCRScan assay: inhibition of GABA/PBR; set-up: species or system Rattus norvegicus; radioligand conc. used [nm] 0.3 – 2.0, parental cells brain tissue
[2] = tested on: Tyrosine-protein kinase ABL1 (Homo sapiens), P00519 [Q252H]; conditions: Compound concentration 1000.0 nM
[3] = target: Activin receptor type-1 (Homo sapiens) (UniProt Q04771); conditions: Compound concentration 1000.0 nM
[4] = target: Activin receptor type-1-like (Homo sapiens) (UniProt P37023); conditions: Compound concentration 1000.0 nM
[5] = tested on: ALK tyrosine kinase receptor (Homo sapiens), Q9UM73 [L1196M]; conditions: Compound concentration 1000.0 nM
[6] = target: Mitogen-activated protein kinase kinase kinase 6 (Homo sapiens) (UniProt O95382); conditions: Compound concentration 1000.0 nM
[7] = target: Bone morphogenetic protein receptor type-1B (Homo sapiens) (UniProt O00238); conditions: Compound concentration 1000.0 nM
[8] = target: Serine/threonine-protein kinase BRSK1 (Homo sapiens) (UniProt Q8TDC3); conditions: Compound concentration 1000.0 nM
[9] = target: Serine/threonine-protein kinase BRSK2 (Homo sapiens) (UniProt Q8IWQ3); conditions: Compound concentration 1000.0 nM
[10] = target: Dual specificity protein kinase CLK3 (Homo sapiens) (UniProt P49761); conditions: Compound concentration 1000.0 nM
[11] = target: Death-associated protein kinase 3 (Homo sapiens) (UniProt O43293); conditions: Compound concentration 1000.0 nM
[12] = target: Dual specificity tyrosine-phosphorylation-regulated kinase 1B (Homo sapiens) (UniProt Q9Y463); conditions: Compound concentration 1000.0 nM
[13] = target: Epidermal growth factor receptor (Homo sapiens) (UniProt P00533); conditions: Compound concentration 1000.0 nM
[14] = target: Ephrin type-B receptor 6 (Homo sapiens) (UniProt O15197); conditions: Compound concentration 1000.0 nM
[15] = target: Fibroblast growth factor receptor 2 (Homo sapiens) (UniProt P21802); conditions: Compound concentration 1000.0 nM
[16] = tested on: Receptor-type tyrosine-protein kinase FLT3 (Homo sapiens), P36888 [D835V]; conditions: Compound concentration 1000.0 nM
[17] = tested on: Receptor-type tyrosine-protein kinase FLT3 (Homo sapiens), P36888 [N841I]; conditions: Compound concentration 1000.0 nM
[18] = target: Cyclin-G-associated kinase (Homo sapiens) (UniProt O14976); conditions: Compound concentration 1000.0 nM
[19] = target: Inhibitor of nuclear factor kappa-B kinase subunit epsilon (Homo sapiens) (UniProt Q14164); conditions: Compound concentration 1000.0 nM
[20] = tested on: Hepatocyte growth factor receptor (Homo sapiens), P08581 [M1250T]; conditions: Compound concentration 1000.0 nM
[21] = target: MAP kinase-interacting serine/threonine-protein kinase 1 (Homo sapiens) (UniProt Q9BUB5); conditions: Compound concentration 1000.0 nM
[22] = tested on: Phosphatidylinositol 4,5-bisphosphate 3-kinase catalytic subunit alpha isoform (Homo sapiens), P42336 [E545A]; conditions: Compound concentration 1000.0 nM
[23] = target: Serine/threonine-protein kinase N2 (Homo sapiens) (UniProt Q16513); conditions: Compound concentration 1000.0 nM
[24] = target: Proto-oncogene tyrosine-protein kinase receptor Ret (Homo sapiens) (UniProt P07949); conditions: Compound concentration 1000.0 nM
[25] = target: Serine/threonine-protein kinase RIO3 (Homo sapiens) (UniProt O14730); conditions: Compound concentration 1000.0 nM
[26] = target: Proto-oncogene tyrosine-protein kinase ROS (Homo sapiens) (UniProt P08922); conditions: Compound concentration 1000.0 nM
[27] = target: T1, Ribosomal protein S6 kinase alpha-3 (Homo sapiens, UniProt P51812); conditions: Compound concentration 1000.0 nM
[28] = target: T1, Ribosomal protein S6 kinase alpha-3; conditions: Compound concentration 1000.0 nM; remark: listed apart in the source
[29] = target: STE20/SPS1-related proline-alanine-rich protein kinase (Homo sapiens) (UniProt Q9UEW8); conditions: Compound concentration 1000.0 nM
[30] = target: Activin receptor type-1B (Homo sapiens) (UniProt P36896); test: ALK4 (h) Millipore kinase activity assay; conditions: Compound concentration 1.0 uM
[31] = target: Calcium/calmodulin-dependent protein kinase type II subunit delta (Homo sapiens) (UniProt Q13557); test: CaMKIIdelta (h) Millipore kinase activity assay; conditions: Compound concentration 1.0 uM
[32] = target: Dual specificity protein kinase CLK3 (Homo sapiens) (UniProt P49761); test: CLK3 (h) Millipore kinase activity assay; conditions: Compound concentration 1.0 uM
[33] = target: Ephrin type-A receptor 1 (Homo sapiens) (UniProt P21709); test: EphA1 (h) Millipore kinase activity assay; conditions: Compound concentration 1.0 uM
[34] = target: Ephrin type-A receptor 5 (Homo sapiens) (UniProt P54756); test: EphA5 (h) Millipore kinase activity assay; conditions: Compound concentration 1.0 uM
[35] = target: Ribosomal protein S6 kinase alpha-2 (Homo sapiens) (UniProt Q15349); test: Rsk3 (h) Millipore kinase activity assay; conditions: Compound concentration 1.0 uM
[36] = target: Mitogen-activated protein kinase 13 (Homo sapiens) (UniProt O15264); test: SAPK4 (h) Millipore kinase activity assay; conditions: Compound concentration 1.0 uM
[37] = target: T2, Alpha-1D adrenergic receptor (Homo sapiens) (UniProt P25100); test: Inhibition of Adrenergic alpha1D at 10 µM in the Eurofins-Panlabs radioligand binding assay (Eurofins_assay_203400); conditions: Compound concentration 10.0 uM
T2 sequence (whole entry): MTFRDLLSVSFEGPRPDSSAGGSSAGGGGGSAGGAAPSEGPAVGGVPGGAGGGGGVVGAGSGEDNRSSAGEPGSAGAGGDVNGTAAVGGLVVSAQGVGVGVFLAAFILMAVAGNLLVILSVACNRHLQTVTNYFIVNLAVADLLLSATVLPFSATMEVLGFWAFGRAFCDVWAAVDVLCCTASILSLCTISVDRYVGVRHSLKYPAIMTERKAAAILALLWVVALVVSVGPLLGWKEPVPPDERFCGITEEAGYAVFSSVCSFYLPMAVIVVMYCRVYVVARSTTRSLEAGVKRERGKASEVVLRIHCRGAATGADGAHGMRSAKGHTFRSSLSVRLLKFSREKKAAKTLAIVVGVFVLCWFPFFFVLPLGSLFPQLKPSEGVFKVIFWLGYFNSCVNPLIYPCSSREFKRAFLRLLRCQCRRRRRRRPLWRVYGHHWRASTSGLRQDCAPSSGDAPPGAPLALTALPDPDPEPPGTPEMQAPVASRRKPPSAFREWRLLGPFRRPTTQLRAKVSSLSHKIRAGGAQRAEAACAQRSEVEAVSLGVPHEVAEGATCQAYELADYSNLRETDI

Sequence of Dual specificity protein kinase CLK3 (Homo sapiens) (P49761 whole entry, looked up): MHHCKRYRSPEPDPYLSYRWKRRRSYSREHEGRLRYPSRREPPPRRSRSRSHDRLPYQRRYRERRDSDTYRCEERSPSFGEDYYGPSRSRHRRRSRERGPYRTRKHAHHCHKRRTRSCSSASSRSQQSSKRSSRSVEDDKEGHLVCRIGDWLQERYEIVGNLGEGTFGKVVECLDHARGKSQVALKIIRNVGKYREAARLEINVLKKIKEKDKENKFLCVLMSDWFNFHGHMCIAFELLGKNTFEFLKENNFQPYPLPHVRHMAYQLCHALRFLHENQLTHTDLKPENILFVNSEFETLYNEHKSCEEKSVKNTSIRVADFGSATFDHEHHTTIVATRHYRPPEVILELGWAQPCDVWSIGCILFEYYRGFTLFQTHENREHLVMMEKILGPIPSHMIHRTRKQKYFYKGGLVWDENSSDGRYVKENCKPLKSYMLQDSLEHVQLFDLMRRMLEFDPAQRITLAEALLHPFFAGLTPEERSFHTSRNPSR
T1 sequence (P51812 whole entry): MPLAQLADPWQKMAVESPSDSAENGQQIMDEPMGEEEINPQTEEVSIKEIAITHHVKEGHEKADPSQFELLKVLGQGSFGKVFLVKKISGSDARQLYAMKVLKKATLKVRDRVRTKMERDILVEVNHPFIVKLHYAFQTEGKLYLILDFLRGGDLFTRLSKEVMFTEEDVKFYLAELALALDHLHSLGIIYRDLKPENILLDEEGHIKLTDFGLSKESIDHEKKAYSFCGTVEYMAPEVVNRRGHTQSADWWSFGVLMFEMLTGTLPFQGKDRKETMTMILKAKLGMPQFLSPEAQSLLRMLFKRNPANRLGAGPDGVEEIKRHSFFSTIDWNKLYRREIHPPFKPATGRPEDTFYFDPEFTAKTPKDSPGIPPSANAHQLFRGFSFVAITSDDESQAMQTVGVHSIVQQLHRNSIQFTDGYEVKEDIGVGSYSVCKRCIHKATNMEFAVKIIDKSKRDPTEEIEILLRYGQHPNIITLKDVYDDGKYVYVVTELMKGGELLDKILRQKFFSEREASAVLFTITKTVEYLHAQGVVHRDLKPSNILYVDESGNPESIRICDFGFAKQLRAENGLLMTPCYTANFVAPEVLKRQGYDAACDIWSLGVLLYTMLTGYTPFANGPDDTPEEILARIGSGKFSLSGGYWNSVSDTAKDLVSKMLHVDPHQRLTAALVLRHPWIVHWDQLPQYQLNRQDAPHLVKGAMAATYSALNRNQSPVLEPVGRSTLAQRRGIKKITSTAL
Sequence of Ribosomal protein S6 kinase alpha-2 (Homo sapiens) (Q15349 whole entry): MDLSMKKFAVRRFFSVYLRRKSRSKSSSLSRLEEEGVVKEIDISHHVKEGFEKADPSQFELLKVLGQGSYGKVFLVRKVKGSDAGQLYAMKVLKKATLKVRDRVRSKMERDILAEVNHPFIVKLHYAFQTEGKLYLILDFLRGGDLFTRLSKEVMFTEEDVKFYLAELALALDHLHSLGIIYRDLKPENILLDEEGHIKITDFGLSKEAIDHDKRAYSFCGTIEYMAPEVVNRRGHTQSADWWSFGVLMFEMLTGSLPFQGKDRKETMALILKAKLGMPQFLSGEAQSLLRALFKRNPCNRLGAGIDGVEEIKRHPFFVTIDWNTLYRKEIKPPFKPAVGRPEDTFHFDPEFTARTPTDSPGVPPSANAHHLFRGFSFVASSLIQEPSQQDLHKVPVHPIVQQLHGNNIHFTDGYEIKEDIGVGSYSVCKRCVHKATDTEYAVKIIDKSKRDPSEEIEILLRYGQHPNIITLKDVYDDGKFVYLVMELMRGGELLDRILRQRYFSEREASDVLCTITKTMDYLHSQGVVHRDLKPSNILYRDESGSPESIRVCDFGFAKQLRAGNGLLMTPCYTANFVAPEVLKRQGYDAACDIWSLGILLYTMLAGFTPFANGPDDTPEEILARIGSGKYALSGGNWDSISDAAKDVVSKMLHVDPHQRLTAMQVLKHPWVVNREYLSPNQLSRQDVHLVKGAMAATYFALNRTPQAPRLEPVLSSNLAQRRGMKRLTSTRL
Sequence of Serine/threonine-protein kinase N2 (Homo sapiens) (Q16513 whole entry, looked up): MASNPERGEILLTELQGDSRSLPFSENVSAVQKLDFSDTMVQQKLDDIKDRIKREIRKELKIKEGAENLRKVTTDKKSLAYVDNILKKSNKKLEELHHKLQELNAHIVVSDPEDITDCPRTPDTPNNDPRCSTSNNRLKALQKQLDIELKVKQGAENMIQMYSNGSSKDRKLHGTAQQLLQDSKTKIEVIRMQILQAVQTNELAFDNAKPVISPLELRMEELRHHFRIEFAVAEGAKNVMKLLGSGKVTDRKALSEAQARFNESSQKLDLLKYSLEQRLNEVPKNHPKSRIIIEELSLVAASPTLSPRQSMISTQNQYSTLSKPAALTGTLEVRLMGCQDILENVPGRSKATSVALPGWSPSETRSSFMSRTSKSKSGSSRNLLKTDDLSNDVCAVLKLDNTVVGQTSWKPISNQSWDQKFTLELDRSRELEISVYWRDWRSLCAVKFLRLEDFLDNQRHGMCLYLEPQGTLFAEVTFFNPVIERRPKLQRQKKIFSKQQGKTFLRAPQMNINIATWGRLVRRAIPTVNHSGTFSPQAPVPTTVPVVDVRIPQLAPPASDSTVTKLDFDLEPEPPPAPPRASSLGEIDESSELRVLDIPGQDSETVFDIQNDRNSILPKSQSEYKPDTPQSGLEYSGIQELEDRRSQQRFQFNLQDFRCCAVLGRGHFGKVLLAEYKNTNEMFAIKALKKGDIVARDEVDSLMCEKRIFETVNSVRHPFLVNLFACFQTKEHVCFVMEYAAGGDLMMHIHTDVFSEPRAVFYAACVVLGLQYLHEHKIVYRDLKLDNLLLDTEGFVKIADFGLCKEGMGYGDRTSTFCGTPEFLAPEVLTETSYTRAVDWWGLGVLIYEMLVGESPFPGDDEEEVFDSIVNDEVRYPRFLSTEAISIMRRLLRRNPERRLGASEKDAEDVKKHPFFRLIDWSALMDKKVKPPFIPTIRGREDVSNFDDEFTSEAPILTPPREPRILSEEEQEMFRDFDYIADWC
Sequence of Cyclin-G-associated kinase (Homo sapiens) (O14976 whole entry): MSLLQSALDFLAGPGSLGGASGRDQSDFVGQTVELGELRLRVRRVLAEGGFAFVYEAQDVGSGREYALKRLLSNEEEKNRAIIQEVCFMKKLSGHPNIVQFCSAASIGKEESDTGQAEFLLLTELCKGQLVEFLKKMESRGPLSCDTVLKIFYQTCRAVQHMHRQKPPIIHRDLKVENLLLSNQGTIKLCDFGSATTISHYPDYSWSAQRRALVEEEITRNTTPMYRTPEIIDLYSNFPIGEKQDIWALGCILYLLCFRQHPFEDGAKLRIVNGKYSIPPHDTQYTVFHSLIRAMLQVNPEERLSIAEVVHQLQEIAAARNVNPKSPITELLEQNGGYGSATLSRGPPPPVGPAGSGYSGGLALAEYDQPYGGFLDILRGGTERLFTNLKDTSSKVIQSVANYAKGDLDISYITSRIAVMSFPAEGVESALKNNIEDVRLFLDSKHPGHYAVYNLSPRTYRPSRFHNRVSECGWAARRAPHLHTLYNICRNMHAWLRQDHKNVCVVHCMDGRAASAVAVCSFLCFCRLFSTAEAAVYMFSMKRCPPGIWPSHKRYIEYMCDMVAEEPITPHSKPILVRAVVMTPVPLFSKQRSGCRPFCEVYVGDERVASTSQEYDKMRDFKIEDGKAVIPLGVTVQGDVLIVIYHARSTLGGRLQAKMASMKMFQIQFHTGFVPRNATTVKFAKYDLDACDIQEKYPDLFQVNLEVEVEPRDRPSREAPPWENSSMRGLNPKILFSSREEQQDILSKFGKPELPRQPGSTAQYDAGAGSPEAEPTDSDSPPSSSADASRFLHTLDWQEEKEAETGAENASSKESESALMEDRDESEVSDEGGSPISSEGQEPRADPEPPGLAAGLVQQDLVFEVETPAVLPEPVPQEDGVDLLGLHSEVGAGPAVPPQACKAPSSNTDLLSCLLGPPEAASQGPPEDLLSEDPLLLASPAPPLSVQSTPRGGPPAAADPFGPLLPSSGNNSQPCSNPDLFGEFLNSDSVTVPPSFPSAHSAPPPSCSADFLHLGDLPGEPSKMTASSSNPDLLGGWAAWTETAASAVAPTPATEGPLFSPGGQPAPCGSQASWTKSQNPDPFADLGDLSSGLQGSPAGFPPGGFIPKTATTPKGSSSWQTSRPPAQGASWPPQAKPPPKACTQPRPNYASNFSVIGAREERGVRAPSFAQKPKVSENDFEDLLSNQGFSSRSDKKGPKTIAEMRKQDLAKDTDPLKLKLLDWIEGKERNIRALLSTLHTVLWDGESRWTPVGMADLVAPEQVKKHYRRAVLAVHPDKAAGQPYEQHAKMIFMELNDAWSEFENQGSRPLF
Sequence of Dual specificity tyrosine-phosphorylation-regulated kinase 1B (Homo sapiens) (Q9Y463 whole entry, looked up): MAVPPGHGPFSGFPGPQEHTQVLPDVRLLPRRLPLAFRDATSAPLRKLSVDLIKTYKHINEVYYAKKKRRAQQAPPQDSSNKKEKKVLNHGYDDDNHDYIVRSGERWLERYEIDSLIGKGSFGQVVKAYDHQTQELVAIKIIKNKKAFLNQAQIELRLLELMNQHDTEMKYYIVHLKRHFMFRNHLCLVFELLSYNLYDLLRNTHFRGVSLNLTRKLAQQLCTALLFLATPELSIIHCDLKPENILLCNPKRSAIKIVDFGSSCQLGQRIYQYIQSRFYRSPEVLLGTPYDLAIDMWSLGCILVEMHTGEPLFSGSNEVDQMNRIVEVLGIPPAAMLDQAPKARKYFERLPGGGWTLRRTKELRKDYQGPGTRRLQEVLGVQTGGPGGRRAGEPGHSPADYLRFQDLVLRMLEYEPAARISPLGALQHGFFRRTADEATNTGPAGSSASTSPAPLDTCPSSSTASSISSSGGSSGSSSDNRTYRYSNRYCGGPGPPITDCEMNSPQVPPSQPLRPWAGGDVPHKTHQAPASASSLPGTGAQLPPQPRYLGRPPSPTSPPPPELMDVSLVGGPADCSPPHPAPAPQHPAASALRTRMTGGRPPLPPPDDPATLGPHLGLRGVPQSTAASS

Compound: CC1=C(C#N)[C@@H](c2ccc3[nH]nc(C)c3c2)C(C#N)=C(c2ccc(Cl)cc2)N1 [BAY-827]
- Ki [1]: 2400 nM
- pKi [1]: 5.67
- residual activity [2]: 43.8%
- residual activity [3]: 100%
- residual activity [4]: 79%
- residual activity [5]: 100%
- residual activity [6]: 83.2%
- residual activity [7]: 100%
- residual activity [8]: 100%
- residual activity [9]: 100%
- residual activity [10]: 100%
- residual activity [11]: 100%
- residual activity [12]: 50.1%
- residual activity [13]: 100%
- residual activity [14]: 100%
- residual activity [15]: 74.3%
- residual activity [16]: 89.7%
- residual activity [17]: 100%
- residual activity [18]: 100%
- residual activity [19]: 100%
- residual activity [20]: 25.1%
- residual activity [21]: 100%
- residual activity [22]: 75.4%
- residual activity [23]: 74.6%
- residual activity [24]: 100%
- residual activity [25]: 100%
- residual activity [26]: 100%
- residual activity [27]: 78.1%
- residual activity [28]: 86.2%
- residual activity [29]: 90.7%

Compound: CC1=C(C#N)C(c2ccc3[nH]nc(C)c3c2)C(C#N)=C(C)N1 [BAY-474]
- inhibition [30]: 4%
- inhibition [31]: 3%
- inhibition [32]: -1%
- inhibition [33]: 0%
- inhibition [34]: -1%
- inhibition [35]: 51%
- inhibition [36]: 10%
- inhibition [37]: -9%
